According to the kinase profiling compilation of Christmann-Franck et al. (2016):

How the values were obtained:
Experiment in all cases: radiometric filter-binding kinase assay, Kinase HotSpot
Conditions in all cases: compound 0.5 µM; ATP 10 µM
ABL1 (human) = ABL1 (human) (UniProt P00519)
ACVR1 (human) = ACVR1 (human) (UniProt Q04771)
[1] = test system: ARAF (human), P10398 [Y301D/Y302D]
AURKB (human) = AURKB (human) (UniProt Q96GD4)
BLK (human) = BLK (human) (UniProt P51451)
BRAF (human) = BRAF (human) (UniProt P15056)
BTK (human) = BTK (human) (UniProt Q06187)
CDK1 CCNA2 (human) = CDK1 CCNA2 (human) (UniProt P06493+P20248)
CSNK2A2 (human) = CSNK2A2 (human) (UniProt P19784)
DCLK2 (human) = DCLK2 (human) (UniProt Q8N568)
DYRK1A (human) = DYRK1A (human) (UniProt Q13627)
EGFR (human) = EGFR (human) (UniProt P00533)
EPHA3 (human) = EPHA3 (human) (UniProt P29320)
EPHA5 (human) = EPHA5 (human) (UniProt P54756)
FER (human) = FER (human) (UniProt P16591)
FGR (human) = FGR (human) (UniProt P09769)
Sequence of FGR (human) (P09769 whole entry, looked up): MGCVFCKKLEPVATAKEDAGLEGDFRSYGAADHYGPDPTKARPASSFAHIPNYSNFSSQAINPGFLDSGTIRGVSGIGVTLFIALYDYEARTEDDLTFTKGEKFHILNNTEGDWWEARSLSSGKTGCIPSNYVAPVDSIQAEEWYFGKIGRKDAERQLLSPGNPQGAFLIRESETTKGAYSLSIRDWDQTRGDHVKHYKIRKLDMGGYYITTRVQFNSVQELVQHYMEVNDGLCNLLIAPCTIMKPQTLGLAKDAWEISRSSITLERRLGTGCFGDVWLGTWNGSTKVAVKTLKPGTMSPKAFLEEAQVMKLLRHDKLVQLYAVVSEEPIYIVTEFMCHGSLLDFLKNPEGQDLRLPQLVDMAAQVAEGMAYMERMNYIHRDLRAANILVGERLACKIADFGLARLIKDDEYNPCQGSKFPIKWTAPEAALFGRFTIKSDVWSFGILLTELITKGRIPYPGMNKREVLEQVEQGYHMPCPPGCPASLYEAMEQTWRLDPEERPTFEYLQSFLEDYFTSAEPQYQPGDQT

FLT1 (human) = FLT1 (human) (UniProt P17948)
Sequence of FLT1 (human) (P17948 whole entry, looked up): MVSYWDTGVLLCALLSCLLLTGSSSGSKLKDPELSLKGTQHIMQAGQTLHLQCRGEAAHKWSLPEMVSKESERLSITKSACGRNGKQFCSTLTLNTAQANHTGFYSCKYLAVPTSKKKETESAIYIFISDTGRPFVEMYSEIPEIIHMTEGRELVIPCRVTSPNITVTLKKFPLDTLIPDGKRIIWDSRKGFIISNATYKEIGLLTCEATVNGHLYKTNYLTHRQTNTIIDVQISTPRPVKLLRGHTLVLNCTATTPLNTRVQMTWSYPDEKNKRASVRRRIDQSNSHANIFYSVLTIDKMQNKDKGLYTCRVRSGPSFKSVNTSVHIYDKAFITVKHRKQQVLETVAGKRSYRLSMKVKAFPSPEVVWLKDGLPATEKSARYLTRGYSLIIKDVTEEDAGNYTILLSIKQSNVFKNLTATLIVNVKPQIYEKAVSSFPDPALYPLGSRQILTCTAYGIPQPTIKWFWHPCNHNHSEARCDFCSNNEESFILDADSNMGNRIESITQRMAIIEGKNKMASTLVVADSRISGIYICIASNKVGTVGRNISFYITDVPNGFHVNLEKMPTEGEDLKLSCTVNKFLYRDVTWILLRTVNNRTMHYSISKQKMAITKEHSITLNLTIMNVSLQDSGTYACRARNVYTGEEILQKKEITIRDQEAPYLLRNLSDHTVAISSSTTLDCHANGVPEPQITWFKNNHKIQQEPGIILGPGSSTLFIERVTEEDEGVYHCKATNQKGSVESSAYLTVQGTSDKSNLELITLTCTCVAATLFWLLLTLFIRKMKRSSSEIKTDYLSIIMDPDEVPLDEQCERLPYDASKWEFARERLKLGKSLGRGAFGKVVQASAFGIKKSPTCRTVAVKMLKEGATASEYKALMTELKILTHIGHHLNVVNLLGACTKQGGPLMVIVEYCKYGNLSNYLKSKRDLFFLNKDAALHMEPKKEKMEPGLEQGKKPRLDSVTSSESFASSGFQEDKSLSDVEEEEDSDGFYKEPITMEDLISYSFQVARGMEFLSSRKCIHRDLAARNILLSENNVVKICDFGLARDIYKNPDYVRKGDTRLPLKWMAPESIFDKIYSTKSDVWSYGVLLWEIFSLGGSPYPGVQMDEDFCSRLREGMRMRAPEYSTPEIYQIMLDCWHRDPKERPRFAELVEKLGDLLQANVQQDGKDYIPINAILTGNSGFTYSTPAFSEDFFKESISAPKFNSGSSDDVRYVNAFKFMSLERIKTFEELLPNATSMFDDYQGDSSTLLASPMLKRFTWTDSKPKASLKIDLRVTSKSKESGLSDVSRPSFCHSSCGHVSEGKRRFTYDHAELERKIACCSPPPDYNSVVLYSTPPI

FRK (human) = FRK (human) (UniProt P42685)
GSG2 (human) = GSG2 (human) (UniProt Q8TF76)
HIPK3 (human) = HIPK3 (human) (UniProt Q9H422)
Sequence of HIPK3 (human) (Q9H422 whole entry, looked up): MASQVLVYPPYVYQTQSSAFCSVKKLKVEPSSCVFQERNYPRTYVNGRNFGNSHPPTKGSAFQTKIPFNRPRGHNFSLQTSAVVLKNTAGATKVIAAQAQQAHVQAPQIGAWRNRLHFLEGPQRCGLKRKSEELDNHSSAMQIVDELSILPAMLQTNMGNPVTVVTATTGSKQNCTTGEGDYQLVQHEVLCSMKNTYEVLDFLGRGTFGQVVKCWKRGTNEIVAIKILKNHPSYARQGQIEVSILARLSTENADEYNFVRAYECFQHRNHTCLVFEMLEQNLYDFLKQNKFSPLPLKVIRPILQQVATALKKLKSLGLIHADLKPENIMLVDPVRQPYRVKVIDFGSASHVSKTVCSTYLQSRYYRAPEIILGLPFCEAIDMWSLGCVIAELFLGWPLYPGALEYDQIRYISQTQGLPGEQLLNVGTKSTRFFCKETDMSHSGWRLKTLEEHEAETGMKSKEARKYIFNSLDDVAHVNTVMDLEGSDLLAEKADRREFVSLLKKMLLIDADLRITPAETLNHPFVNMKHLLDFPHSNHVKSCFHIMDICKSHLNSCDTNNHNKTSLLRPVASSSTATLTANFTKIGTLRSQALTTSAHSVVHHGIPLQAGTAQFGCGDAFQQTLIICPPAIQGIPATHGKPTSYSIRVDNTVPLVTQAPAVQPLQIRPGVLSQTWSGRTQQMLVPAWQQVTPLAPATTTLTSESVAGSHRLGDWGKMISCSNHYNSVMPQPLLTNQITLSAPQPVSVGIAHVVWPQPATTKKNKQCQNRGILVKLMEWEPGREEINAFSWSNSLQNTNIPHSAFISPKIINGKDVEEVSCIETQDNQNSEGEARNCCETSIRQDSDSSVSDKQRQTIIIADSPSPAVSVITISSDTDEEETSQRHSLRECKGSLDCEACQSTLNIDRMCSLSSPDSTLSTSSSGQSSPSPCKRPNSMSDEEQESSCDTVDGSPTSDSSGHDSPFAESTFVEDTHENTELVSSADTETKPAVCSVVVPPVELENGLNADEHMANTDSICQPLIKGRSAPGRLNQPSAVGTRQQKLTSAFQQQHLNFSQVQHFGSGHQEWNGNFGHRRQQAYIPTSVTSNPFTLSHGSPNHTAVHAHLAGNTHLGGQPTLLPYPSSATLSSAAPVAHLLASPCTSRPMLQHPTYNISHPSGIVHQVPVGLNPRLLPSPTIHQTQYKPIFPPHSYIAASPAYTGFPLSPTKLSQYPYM

IGF1R (human) = IGF1R (human) (UniProt P08069)
IKBKB (human) = IKBKB (human) (UniProt O14920)
MAP2K2 (human) = MAP2K2 (human) (UniProt P36507)
MAP3K2 (human) = MAP3K2 (human) (UniProt Q9Y2U5)
MAPKAPK2 (human) = MAPKAPK2 (human) (UniProt P49137)
Sequence of MAPKAPK2 (human) (P49137 whole entry, looked up): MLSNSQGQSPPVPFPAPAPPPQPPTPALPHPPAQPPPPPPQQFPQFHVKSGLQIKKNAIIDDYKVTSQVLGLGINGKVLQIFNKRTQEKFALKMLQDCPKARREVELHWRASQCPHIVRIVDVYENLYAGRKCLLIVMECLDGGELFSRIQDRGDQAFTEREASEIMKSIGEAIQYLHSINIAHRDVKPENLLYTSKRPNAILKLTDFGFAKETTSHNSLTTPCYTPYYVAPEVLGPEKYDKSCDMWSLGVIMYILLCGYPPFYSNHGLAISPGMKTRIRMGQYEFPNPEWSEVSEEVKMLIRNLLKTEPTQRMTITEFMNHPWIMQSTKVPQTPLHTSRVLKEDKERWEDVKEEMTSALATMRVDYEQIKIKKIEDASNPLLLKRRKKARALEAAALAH

MYLK2 (human) = MYLK2 (human) (UniProt Q9H1R3)
PDGFRB (human) = PDGFRB (human) (UniProt P09619)
PNCK (human) = PNCK (human) (UniProt Q6P2M8)
PRKCB1 (human) = PRKCB1 (human) (UniProt P05771)
PRKCD (human) = PRKCD (human) (UniProt Q05655)
RET (human) = RET (human) (UniProt P07949)
Sequence of RET (human) (P07949 whole entry, looked up): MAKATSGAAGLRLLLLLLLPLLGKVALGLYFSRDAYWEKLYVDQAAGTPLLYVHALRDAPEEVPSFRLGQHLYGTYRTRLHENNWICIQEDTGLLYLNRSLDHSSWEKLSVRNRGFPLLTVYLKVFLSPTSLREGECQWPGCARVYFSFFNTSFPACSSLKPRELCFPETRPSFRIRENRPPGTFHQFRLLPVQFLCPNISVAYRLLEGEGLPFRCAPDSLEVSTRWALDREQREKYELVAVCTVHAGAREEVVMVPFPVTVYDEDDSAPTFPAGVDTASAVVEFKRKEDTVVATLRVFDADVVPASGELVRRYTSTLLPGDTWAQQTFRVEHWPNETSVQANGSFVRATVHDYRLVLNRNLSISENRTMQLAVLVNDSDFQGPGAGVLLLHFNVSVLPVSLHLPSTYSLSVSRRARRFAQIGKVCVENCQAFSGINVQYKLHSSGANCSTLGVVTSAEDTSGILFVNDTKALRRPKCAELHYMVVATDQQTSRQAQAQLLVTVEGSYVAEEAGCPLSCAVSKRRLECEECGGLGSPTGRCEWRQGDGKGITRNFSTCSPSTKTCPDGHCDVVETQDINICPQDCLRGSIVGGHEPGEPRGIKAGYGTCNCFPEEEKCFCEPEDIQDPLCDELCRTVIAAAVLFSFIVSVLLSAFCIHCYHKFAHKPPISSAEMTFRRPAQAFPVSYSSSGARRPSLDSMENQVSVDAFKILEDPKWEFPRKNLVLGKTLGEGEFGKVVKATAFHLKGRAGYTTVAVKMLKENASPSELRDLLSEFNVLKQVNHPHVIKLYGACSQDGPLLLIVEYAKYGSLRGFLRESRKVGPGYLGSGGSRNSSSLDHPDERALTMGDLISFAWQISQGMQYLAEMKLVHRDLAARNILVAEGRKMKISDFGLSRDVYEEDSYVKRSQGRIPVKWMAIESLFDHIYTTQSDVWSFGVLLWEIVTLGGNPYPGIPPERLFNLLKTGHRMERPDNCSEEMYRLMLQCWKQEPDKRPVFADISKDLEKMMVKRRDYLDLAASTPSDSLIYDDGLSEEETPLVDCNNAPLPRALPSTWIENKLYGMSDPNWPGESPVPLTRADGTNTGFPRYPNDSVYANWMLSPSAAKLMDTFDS

ROS1 (human) = ROS1 (human) (UniProt P08922)
STK24 (human) = STK24 (human) (UniProt Q9Y6E0)
STK4 (human) = STK4 (human) (UniProt Q13043)
ZAP70 (human) = ZAP70 (human) (UniProt P43403)
PAK6 (human) = PAK6 (human) (UniProt Q9NQU5)

Sequence of BLK (human) (P51451 whole entry, looked up): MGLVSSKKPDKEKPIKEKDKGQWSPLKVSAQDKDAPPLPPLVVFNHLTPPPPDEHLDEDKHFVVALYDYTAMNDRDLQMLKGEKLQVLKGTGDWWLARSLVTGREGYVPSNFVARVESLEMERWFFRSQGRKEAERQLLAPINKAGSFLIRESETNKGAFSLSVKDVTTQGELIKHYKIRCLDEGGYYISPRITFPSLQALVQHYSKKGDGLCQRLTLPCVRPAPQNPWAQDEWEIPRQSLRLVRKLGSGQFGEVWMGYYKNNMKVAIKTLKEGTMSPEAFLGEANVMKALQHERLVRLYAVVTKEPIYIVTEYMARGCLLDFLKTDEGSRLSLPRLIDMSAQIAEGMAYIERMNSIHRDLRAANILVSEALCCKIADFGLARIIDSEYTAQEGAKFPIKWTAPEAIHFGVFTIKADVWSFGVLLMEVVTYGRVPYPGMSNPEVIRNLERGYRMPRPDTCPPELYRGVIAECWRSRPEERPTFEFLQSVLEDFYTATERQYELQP

Compound	residual activity (ACVR1 (human)) [%]	residual activity [1] [%]	residual activity (AURKB (human)) [%]	residual activity (BLK (human)) [%]	residual activity (BRAF (human)) [%]	residual activity (BTK (human)) [%]	residual activity (CDK1 CCNA2 (human)) [%]	residual activity (CSNK2A2 (human)) [%]	residual activity (DCLK2 (human)) [%]	residual activity (DYRK1A (human)) [%]	residual activity (EGFR (human)) [%]	residual activity (EPHA3 (human)) [%]	residual activity (EPHA5 (human)) [%]	residual activity (FER (human)) [%]	residual activity (FGR (human)) [%]	residual activity (FLT1 (human)) [%]	residual activity (FRK (human)) [%]	residual activity (GSG2 (human)) [%]	residual activity (HIPK3 (human)) [%]	residual activity (IGF1R (human)) [%]	other results
CC(C)n1cnc2c(Nc3cccc(Cl)c3)nc(NCCO)nc21	80.3	107	106	91.2	97	86.3	78.5	91.8	97.8	88.6	91.5	90.3	91.7	79.5	61.5	93.4	94.2	94.7	99.9	90	residual activity (ABL1 (human)): 73.3%; residual activity (IKBKB (human)): 102%; residual activity (MAP2K2 (human)): 97.6%; residual activity (MAP3K2 (human)): 97.6%; residual activity (MAPKAPK2 (human)): 98.9%; residual activity (MYLK2 (human)): 96.3%; residual activity (PDGFRB (human)): 94.7%; residual activity (PNCK (human)): 100%; residual activity (PRKCB1 (human)): 102%; residual activity (PRKCD (human)): 89.1%; residual activity (RET (human)): 82.9%; residual activity (ROS1 (human)): 102%; residual activity (STK24 (human)): 87.7%; residual activity (STK4 (human)): 93.1%; residual activity (ZAP70 (human)): 98.3%
Nc1n[nH]c2nnc(-c3c(-c4ccccc4)nn4ccccc34)cc12	107	98.4	96.8	98.1	95.7	93.6	101	93.4	100	102	83.9	97.8	101	90.8	92.9	96.7	101	97.1	95.3	102	residual activity (ABL1 (human)): 83.3%; residual activity (IKBKB (human)): 115%; residual activity (MAP2K2 (human)): 99.4%; residual activity (MAP3K2 (human)): 97.8%; residual activity (MAPKAPK2 (human)): 105%; residual activity (MYLK2 (human)): 101%; residual activity (PAK6 (human)): 96.4%; residual activity (PDGFRB (human)): 114%; residual activity (PNCK (human)): 99.6%; residual activity (PRKCB1 (human)): 96.5%; residual activity (PRKCD (human)): 31.2%; residual activity (RET (human)): 93.7%; residual activity (ROS1 (human)): 80.2%; residual activity (STK24 (human)): 74.6%; residual activity (STK4 (human)): 99.1%; residual activity (ZAP70 (human)): 90.1%
CCN1/C(=C/C(C)=O)Sc2ccc(OC)cc21	88.1	128	87.9	95.4	95.3	101	97.5	89.7	97.9	28.9	99.1	89.9	97.8	87.9	91.7	88.4	99.5	25	100	98.3	residual activity (ABL1 (human)): 92.9%; residual activity (IKBKB (human)): 102%; residual activity (MAP2K2 (human)): 86.4%; residual activity (MAP3K2 (human)): 101%; residual activity (MAPKAPK2 (human)): 94.6%; residual activity (MYLK2 (human)): 95.1%; residual activity (PAK6 (human)): 95.6%; residual activity (PDGFRB (human)): 107%; residual activity (PNCK (human)): 101%; residual activity (PRKCB1 (human)): 99.4%; residual activity (PRKCD (human)): 88.2%; residual activity (RET (human)): 96.5%; residual activity (ROS1 (human)): 113%; residual activity (STK24 (human)): 82.2%; residual activity (STK4 (human)): 97.8%; residual activity (ZAP70 (human)): 103%
CC(C)(C)c1nc2c3ccc(F)cc3c3c(=O)[nH]ccc3c2[nH]1	135	122	11.2	93.5	117	80.5	89.4	91.5	65.8	102	94.8	89.2	100	34	76.9	92.3	104	67.2	78.6	91.3	residual activity (ABL1 (human)): 98.4%; residual activity (IKBKB (human)): 52.1%; residual activity (MAP2K2 (human)): 82.1%; residual activity (MAP3K2 (human)): 33.9%; residual activity (MAPKAPK2 (human)): 99.6%; residual activity (MYLK2 (human)): 67.2%; residual activity (PAK6 (human)): 90.9%; residual activity (PNCK (human)): 112%; residual activity (PRKCB1 (human)): 91.5%; residual activity (PRKCD (human)): 43.6%; residual activity (RET (human)): 18.3%; residual activity (ROS1 (human)): 31.2%; residual activity (STK24 (human)): 82.4%; residual activity (STK4 (human)): 6.84%; residual activity (ZAP70 (human)): 88.9%
O=C1Nc2cc(Br)ccc2/C1=C1/Nc2ccccc2/C1=N\O	114	99.8	39.1	11.3	98.2	13.1	59.7	63.1	99.1	101	89	81.9	70.4	69.8	2.99	75.1	23.2	95.9	64.8	103	residual activity (IKBKB (human)): 85.4%; residual activity (MAP2K2 (human)): 92.4%; residual activity (MAP3K2 (human)): 90.3%; residual activity (MAPKAPK2 (human)): 86.9%; residual activity (MYLK2 (human)): 17.6%; residual activity (PAK6 (human)): 86.3%; residual activity (PDGFRB (human)): 35.2%; residual activity (PNCK (human)): 105%; residual activity (PRKCB1 (human)): 98.5%; residual activity (PRKCD (human)): 103%; residual activity (RET (human)): 0.0602%; residual activity (ROS1 (human)): 82%; residual activity (STK24 (human)): 90.9%; residual activity (STK4 (human)): 22.5%; residual activity (ZAP70 (human)): 107%
